Laboratory results taken from ChEMBL document CHEMBL1143951, “Synthesis and cytotoxicity evaluation of 22,23-oxygenated stigmastane derivatives” (Bioorg Med Chem, 2008).

Legend:
MCF7 = experiment: Cytotoxicity against human MCF7 cells after 48 hrs by MTT assay; type: functional, cell-based
HepG2 = experiment: Cytotoxicity against human HepG2 cells after 48 hrs by MTT assay; type: functional, cell-based

Row | SMILES | Activity (MCF7) | Activity (HepG2)
1 | CCC(C(C)C)[C@@H](O)[C@H](O)[C@@H](C)[C@H]1CC[C@H]2[C@@H]3C[C@@H]4O[C@@]45C[C@@H](O)CC[C@]5(C)[C@H]3CC[C@]12C (stereo partly specified) | Toxic | –
2 | CCC(C(C)C)[C@H]1O[C@@H]1[C@@H](C)[C@H]1CC[C@H]2[C@@H]3[C@H](O)C=C4C[C@@H](O)CC[C@]4(C)[C@H]3CC[C@]12C (stereo partly specified) | Toxic | Toxic
3 | CC[C@@H](C(C)C)[C@@H](O)[C@H](O)[C@@H](C)[C@H]1CC[C@H]2[C@@H]3CCC4=CC(=O)CC[C@]4(C)[C@H]3CC[C@]12C | Toxic | –
4 | CCC(C(C)C)[C@@H](O)[C@H](O)[C@@H](C)[C@H]1CC[C@H]2[C@@H]3C(=O)C=C4C[C@@H](O)CC[C@]4(C)[C@H]3CC[C@]12C (stereo partly specified) | Toxic | Toxic
5 | CC[C@@H](C(C)C)[C@@H](O)[C@H](O)[C@@H](C)[C@H]1CC[C@H]2[C@@H]3CC(=O)C4=CC(=O)CC[C@]4(C)[C@H]3CC[C@]12C | Toxic | –
6 | CCC(C(C)C)[C@@H](O)[C@H](O)[C@@H](C)[C@H]1CC[C@H]2[C@@H]3C[C@@H](O)[C@@]4(O)C[C@@H](O)CC[C@]4(C)[C@H]3CC[C@]12C (stereo partly specified) | Toxic | Toxic
7 | CCC(C(C)C)[C@@H](O)[C@H](O)[C@@H](C)[C@H]1CC[C@H]2[C@@H]3CC=C4C[C@@H](O)CC[C@]4(C)[C@H]3CC[C@]12C (stereo partly specified) | Toxic | Toxic
